Measurements: ChEMBL document CHEMBL1201862, “PubChem BioAssay data set” (2004)
Calls of active or inactive are those of the source.

How the values were obtained:
Bcl-2-related protein A1 = biological target: T1, Bcl-2-related protein A1 (Mus musculus, UniProt Q07440); format: functional;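 further: confirmatory dose–response counterscreen on Bfl-1, used to check hits from a UBC13 polyubiquitin inhibitor campaign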
T1 sequence (Q07440 whole entry): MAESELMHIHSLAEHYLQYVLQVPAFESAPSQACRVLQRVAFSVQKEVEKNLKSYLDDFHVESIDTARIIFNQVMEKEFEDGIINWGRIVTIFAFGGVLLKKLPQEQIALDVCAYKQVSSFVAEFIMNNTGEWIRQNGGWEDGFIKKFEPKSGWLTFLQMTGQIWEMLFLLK

Beta-lactamase [1] = biological target: Beta-lactamase (Salmonella choleraesuis (strain SC-B67), UniProt Q5J463)
Sequence of Beta-lactamase (Salmonella choleraesuis (strain SC-B67), UniProt Q5J463) (Q5J463 whole entry): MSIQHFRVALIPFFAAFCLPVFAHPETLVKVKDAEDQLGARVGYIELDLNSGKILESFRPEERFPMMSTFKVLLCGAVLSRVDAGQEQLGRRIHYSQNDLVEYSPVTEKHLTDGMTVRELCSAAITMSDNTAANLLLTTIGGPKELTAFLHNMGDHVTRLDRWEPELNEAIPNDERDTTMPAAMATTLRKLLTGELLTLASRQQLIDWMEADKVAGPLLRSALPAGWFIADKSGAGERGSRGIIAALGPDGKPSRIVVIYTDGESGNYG

Beta-lactamase [2] = biological target: Beta-lactamase (Pseudomonas aeruginosa, UniProt Q79MP6);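 further: biochemical dose-response test of metallo-beta-lactamase enzyme inhibition, read out by epi-absorbance; purified recombinant IMP-1 metallo-beta-lactamase with nitrocefin as substrate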
Sequence of Beta-lactamase (Pseudomonas aeruginosa, UniProt Q79MP6) (Q79MP6 whole entry): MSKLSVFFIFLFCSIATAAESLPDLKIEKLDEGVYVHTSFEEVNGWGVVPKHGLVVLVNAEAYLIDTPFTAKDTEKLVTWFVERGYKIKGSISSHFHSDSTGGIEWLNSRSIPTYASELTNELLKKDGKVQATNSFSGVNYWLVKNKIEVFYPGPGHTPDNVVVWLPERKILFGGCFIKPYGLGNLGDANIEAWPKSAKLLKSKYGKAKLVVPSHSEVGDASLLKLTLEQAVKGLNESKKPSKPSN

[3] = biological target: T2, Ubiquitin-conjugating enzyme E2 N (Homo sapiens, UniProt P61088); format: functional
T2 sequence (P61088 whole entry): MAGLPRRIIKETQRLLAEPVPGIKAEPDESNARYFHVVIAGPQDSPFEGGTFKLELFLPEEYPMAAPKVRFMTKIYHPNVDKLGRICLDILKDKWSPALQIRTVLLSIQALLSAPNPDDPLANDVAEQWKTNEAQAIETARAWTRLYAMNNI

[4] = biological target: T3, Apoptotic protease-activating factor 1 (Homo sapiens, UniProt O14727); format: functional
T3 sequence (O14727 whole entry): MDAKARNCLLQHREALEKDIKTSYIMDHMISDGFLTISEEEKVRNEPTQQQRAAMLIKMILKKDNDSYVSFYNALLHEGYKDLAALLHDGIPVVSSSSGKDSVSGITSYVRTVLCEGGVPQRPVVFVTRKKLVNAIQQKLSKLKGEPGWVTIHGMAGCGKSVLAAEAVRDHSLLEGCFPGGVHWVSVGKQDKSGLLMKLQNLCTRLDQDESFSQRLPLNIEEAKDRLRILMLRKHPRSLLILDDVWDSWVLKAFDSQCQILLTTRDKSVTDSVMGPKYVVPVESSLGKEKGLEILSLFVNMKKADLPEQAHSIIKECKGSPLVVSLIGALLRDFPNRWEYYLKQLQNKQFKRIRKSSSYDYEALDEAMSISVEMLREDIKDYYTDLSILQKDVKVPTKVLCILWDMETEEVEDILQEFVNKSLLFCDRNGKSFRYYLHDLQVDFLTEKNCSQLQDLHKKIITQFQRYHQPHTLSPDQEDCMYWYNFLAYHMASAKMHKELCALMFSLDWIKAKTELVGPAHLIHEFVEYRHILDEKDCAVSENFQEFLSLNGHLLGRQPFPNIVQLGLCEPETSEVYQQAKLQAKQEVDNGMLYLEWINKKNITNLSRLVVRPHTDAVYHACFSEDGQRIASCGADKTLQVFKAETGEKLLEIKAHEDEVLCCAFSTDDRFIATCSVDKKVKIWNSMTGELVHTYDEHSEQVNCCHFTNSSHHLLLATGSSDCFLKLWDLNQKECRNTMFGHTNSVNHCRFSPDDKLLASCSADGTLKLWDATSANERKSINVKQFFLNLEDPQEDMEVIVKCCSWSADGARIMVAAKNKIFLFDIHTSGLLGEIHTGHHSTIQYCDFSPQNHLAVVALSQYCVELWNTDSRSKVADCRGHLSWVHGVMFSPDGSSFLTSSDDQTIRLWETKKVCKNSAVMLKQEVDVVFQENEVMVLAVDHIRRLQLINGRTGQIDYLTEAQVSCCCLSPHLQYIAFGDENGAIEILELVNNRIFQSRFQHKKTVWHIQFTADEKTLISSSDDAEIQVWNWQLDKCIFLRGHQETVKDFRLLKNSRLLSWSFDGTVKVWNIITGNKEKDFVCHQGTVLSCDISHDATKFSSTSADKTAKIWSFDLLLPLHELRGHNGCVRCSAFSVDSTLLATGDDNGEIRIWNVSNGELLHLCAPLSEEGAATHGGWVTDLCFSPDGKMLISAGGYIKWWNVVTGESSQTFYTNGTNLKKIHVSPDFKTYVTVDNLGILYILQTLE

Beta Lactamase = Beta Lactamase (Pseudomonas aeruginosa, UniProt Q932Y6);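 further: confirmatory high-throughput screen measuring VIM-2 metallo-beta-lactamase inhibition by epi-absorbance in dose response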
Sequence of Beta Lactamase (Q932Y6 whole entry): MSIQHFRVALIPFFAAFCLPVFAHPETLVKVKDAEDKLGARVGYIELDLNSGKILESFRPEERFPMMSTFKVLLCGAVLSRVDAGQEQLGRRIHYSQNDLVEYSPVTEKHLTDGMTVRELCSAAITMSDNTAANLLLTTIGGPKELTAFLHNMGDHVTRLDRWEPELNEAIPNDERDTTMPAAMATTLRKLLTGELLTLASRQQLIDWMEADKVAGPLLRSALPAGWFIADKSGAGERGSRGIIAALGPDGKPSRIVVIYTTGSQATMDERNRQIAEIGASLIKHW

[5] = biological target: T3, Apoptotic protease-activating factor 1; experiment: SAR analysis of small molecule inhibitors of Apaf-1 in a Fluorescent assay.; format: functional; details: read-out: IC50_Mean
[6] = biological target: E3 ubiquitin-protein ligase XIAP (Homo sapiens, UniProt P98170); experiment: Counter Screen using XIAP-Bir3 for Chemical Antagonists of Bir1/2 domains of IAP-family anti-apoptotic proteins. [Related pubchem assays (depositor defined):AID1018, AID1449, AID1514, AID1638, AID1749, AID1750, AID488957, AID488963]
Sequence of E3 ubiquitin-protein ligase XIAP (P98170 whole entry): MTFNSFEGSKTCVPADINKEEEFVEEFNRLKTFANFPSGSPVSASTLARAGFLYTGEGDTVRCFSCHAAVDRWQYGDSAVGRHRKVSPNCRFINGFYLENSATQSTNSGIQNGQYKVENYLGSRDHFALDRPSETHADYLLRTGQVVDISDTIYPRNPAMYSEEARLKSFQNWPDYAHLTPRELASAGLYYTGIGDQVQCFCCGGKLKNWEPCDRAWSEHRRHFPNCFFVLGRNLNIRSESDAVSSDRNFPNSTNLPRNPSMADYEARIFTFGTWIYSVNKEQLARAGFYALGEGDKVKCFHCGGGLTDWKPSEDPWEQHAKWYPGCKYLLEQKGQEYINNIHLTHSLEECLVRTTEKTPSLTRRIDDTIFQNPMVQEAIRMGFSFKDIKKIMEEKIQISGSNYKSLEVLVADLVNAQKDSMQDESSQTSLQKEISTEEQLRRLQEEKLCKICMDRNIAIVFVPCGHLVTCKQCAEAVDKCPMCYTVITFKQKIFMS

[7] = biological target: T2, Ubiquitin-conjugating enzyme E2 N; format: functional; remark: listed apart in the source
[8] = biological target: T3, Apoptotic protease-activating factor 1; experiment: SAR analysis of small molecule Activators of Apaf-1 in a Fluorescent assay - set 2.; format: functional; details: read-out: EC50_Mean
[9] = SAR analysis of small molecule activators of Apaf-1 using a LZ-Caspase-9/Caspase-3 Fluorescent Selectivity assay - Set 2.; format: functional; details: read-out: EC50_Mean
[10] = biological target: Glycogen synthase kinase-3 beta (Homo sapiens, UniProt P49841); experiment: inhibition of human GSK3B activity – biochemical, microfluidics, dry powder samples, set 2, dose response (AID 623989); format: functional
Sequence of Glycogen synthase kinase-3 beta (P49841 whole entry): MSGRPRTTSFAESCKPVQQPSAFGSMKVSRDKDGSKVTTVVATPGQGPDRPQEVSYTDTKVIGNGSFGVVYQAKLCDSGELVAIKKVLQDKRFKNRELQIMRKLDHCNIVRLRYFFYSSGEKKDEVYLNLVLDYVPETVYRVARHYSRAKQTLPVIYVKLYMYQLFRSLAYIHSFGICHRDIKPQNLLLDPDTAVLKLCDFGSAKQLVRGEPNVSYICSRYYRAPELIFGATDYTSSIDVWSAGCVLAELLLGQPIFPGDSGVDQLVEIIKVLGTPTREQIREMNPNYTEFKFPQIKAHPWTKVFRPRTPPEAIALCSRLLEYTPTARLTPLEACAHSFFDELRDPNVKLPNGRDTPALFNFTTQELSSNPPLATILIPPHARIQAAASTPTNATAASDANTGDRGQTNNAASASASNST

[11] = biological target: Glycogen synthase kinase-3 alpha (Homo sapiens, UniProt P49840); experiment: GSK3A enzyme blockers, homolog specificity check – biochemical, microfluidics, dry powder samples, set 2, selectivity assay for GSK3beta inhibitor project, dose response (AID 623978); format: functional
Sequence of Glycogen synthase kinase-3 alpha (P49840 whole entry): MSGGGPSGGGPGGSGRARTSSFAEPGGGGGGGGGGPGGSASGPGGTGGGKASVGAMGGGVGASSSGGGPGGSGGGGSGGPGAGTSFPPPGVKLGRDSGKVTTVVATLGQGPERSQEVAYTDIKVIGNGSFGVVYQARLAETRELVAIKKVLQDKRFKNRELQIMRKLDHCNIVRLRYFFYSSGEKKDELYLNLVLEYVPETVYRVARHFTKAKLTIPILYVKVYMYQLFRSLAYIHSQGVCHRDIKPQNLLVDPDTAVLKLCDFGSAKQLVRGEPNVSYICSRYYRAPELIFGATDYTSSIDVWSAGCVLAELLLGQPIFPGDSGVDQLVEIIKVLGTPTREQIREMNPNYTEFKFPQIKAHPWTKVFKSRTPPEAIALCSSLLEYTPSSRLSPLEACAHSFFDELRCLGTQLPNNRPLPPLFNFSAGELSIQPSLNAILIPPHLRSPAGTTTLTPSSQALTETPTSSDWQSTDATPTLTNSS

[12] = biological target: T4, Melanin-concentrating hormone receptor 1 (Homo sapiens, UniProt Q99705); experiment: Late-stage fluorescence-based counterscreen for antagonists of the G-protein coupled receptor 7 (GPR7): cell-based dose response assay to identify antagonists of the melanin-concentrating hormone receptor 1 (MCHR1) Set 5.; format: functional
T4 sequence (Q99705 whole entry): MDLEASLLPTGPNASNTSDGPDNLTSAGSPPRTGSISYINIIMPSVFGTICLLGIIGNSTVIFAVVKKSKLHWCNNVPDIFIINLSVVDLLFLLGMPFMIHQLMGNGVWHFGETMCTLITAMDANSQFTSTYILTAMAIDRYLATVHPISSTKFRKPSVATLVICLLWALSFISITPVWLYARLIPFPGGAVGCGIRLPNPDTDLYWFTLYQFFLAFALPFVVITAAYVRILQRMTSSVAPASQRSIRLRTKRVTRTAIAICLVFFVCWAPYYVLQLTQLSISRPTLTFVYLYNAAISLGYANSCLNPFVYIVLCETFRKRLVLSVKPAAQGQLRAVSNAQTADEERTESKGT

[13] = biological target: T5, Neuropeptides B/W receptor type 1 (Homo sapiens, UniProt P48145); experiment: human NPBW1 receptor blockade, IC50 – cell-based, fluorescence, dose response, set 5, late-stage follow-up (AID 588566); format: functional
T5 sequence (P48145 whole entry): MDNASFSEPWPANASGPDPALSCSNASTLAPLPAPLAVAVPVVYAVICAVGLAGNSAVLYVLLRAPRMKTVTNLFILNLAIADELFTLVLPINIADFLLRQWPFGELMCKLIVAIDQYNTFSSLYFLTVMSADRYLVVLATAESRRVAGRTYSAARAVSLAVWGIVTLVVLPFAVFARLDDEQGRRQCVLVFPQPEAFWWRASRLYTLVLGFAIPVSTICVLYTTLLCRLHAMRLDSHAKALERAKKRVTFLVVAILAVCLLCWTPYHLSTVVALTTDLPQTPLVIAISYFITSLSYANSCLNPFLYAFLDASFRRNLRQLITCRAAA

[14] = Vero cell cytotoxicity, dose response, cytotoxicity control for M. tuberculosis growth inhibitor project, Vero cells, purified and synthesized compounds, set 4 (AID 504854); format: functional; details: Mycobacterium tuberculosis
[15] = Vero cell cytotoxicity, dose response, cytotoxicity control for M. tuberculosis growth inhibitor project, Vero cells, purified and synthesized compounds, set 5 (AID 504909); format: functional; details: Mycobacterium tuberculosis
[16] = biological target: T5, Neuropeptides B/W receptor type 1; experiment: human NPBW1 receptor blockade, IC50 – cell-based, fluorescence, dose response, set 6, late-stage follow-up (AID 588583); format: functional
[17] = biological target: T4, Melanin-concentrating hormone receptor 1; experiment: Late-stage fluorescence-based counterscreen for antagonists of the G-protein coupled receptor 7 (GPR7): cell-based dose response assay to identify antagonists of the melanin-concentrating hormone receptor 1 (MCHR1) Set 6.; format: functional
[18] = biological target: Cyclin-dependent kinase 19 (Homo sapiens, UniProt Q9BWU1); experiment: Navigating the Kinome. Panel member name: CDC2L6; format: functional
Sequence of Cyclin-dependent kinase 19 (Q9BWU1 whole entry): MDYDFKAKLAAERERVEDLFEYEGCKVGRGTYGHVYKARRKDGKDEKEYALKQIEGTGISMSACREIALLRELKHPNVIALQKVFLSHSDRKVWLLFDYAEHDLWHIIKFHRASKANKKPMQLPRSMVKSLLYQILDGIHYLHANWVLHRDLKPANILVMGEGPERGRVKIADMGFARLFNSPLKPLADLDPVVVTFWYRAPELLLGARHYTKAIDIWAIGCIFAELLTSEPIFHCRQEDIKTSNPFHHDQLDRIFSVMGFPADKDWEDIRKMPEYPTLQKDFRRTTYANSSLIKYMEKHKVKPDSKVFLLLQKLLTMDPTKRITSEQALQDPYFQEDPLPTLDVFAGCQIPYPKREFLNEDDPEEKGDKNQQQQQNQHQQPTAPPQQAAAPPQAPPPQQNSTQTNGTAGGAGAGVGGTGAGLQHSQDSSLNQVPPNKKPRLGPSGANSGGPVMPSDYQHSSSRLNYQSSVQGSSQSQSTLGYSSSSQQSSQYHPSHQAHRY

[19] = biological target: High affinity nerve growth factor receptor (Homo sapiens, UniProt P04629); format: functional;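 further: NTRK1 tested as one member of a kinome-wide profiling panel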
Sequence of High affinity nerve growth factor receptor (P04629 whole entry): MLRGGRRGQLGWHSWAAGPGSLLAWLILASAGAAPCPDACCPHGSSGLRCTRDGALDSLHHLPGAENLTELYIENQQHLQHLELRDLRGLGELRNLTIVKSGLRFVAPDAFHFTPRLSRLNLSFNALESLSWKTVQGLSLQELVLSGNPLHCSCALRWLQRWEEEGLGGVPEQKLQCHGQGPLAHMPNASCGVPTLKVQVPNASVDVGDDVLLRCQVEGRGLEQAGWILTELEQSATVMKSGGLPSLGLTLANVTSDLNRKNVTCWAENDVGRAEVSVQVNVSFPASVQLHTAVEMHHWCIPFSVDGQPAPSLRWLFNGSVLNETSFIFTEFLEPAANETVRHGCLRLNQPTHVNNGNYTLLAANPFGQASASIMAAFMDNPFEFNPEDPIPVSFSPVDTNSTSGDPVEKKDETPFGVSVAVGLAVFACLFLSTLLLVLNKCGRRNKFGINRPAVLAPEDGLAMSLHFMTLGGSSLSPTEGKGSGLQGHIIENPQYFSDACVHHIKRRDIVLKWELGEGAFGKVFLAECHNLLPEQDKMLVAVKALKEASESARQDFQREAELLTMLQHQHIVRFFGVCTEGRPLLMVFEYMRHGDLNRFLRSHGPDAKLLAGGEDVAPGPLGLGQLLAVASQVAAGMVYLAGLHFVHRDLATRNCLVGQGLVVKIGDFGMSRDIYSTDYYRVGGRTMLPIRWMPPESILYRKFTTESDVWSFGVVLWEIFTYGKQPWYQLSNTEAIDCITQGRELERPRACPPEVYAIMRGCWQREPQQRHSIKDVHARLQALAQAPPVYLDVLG

With `CCN(CC)CCOC(=O)c1ccc(N/C=C(/C#N)c2nc(-c3cc4ccccc4oc3=O)cs2)cc1` the IC50 (Bcl-2-related protein A1) was 0.55 µM (active), the IC50 (Beta-lactamase [1]) was > 59.6 µM (inactive) and the IC50 (Beta-lactamase [2]) was > 59.6 µM (inactive). For the same molecule, the IC50 [3] was 3.74 µM (active), the IC50 [4] was 4.12 µM (active) and the IC50 (Beta Lactamase) was > 59.6 µM (inactive). For the same molecule, the IC50 [5] was 3.09 µM (active), the IC50 [6] was > 20 µM (inactive) and the IC50 [7] was 3.5 µM (active).
For `O=C(O)C1CC(c2ccccc2Cl)=NO1` (stereo unspecified), the EC50 [8] was > 100 µM (inactive) and the EC50 [9] was > 100 µM (inactive).
With `CCOc1ccccc1/C=N/NC(=O)c1nnn(-c2nonc2N)c1CN1CCCCCC1` the AC50 [10] was < 0.016 µM (active) and the AC50 [11] was 0.0219 µM (active).
With `COc1ccc(Oc2c(Cl)c(C(=O)O)nn(-c3ccc(C(C)C)cc3)c2=O)cc1` the IC50 [12] was > 20 µM (inactive) and the IC50 [13] was > 20 µM (inactive).
In the case of `Cc1ccc(NC(=O)CSc2nc3ccccc3c(=O)[nH]2)cc1Cl`, the CC50 [14] is reported as > 100 µM (active) and the CC50 [15] is reported as > 100 µM (active).
With `N#CC(c1ccc(F)cc1Cl)c1c(Cl)cnn(Cc2cccc3ccccc23)c1=O` (stereo unspecified) the IC50 [16] was 1.71 µM (active) and the IC50 [17] was 1.71 µM (active).
For `O=C(Nc1cccc(C(F)(F)F)c1)Nc1cc(Cl)ccc1O`, the Ki [18] was 20 µM (active) and the Ki [19] was 10 µM (active).
